# According to article PMC9299836 (eLife, 2022):
# Several values for one entry are separate records, joined by “and”; a condition that tells them apart may be missing. Identical values can stand only once.
# Columns and labels:
# mGluR2 [1] = molecular target: mGluR2 (Mus musculus, UniProt Q14BI2, INS715F); assay: Live-cell FRET, azi-ECL2 (7TM domain, extracellular loop 2) sensor in HEK293T cells; details: for Mean normalized azi-ECL2 FRET response: glutamate + 5μM modulator, maximal response normalized to 1mM glutamate;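 for all read-outs here: Cy3/Cy5 click-labeled sensor, whole-membrane ROIs per cell, apparent FRET after bleed-through correction, ΔFRET as treatment minus pre-treatment signal, at room temperature, at least three biological replicates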
# Sequence of mGluR2 (Mus musculus, UniProt Q14BI2, INS715F) (Q14BI2 with tags, fused parts or gaps INS715F): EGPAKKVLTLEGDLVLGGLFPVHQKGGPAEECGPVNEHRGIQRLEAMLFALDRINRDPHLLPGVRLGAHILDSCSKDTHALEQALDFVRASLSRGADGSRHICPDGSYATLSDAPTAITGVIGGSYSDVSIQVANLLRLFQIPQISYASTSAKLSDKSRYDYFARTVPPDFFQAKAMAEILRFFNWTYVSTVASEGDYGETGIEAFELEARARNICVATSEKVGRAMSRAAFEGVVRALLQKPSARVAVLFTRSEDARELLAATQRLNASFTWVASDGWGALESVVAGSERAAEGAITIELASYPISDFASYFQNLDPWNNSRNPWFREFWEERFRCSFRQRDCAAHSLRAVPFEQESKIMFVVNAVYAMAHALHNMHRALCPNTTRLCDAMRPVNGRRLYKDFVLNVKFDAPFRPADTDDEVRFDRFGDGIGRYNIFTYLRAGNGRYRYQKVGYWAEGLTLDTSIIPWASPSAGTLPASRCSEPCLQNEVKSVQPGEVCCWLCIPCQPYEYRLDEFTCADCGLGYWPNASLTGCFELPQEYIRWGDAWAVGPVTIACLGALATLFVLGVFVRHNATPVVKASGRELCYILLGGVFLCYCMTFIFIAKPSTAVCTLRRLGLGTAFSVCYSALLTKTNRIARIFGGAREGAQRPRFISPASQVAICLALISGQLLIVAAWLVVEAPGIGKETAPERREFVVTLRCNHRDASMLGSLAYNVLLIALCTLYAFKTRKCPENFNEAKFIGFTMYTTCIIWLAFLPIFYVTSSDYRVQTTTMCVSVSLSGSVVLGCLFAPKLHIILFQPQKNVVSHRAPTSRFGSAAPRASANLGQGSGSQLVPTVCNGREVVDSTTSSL
# mGluR2 [2] = molecular target: mGluR2 (Mus musculus, UniProt Q14BI2, A548F); assay: Live-cell FRET, azi-CRD (cysteine-rich domain) sensor in HEK293T cells; details: for Mean normalized FRET response, azi-CRD PAM DRC: glutamate + 5μM LY487379, maximal response normalized to 1mM glutamate
# Sequence of mGluR2 (Mus musculus, UniProt Q14BI2, A548F) (Q14BI2 19-872 A548F): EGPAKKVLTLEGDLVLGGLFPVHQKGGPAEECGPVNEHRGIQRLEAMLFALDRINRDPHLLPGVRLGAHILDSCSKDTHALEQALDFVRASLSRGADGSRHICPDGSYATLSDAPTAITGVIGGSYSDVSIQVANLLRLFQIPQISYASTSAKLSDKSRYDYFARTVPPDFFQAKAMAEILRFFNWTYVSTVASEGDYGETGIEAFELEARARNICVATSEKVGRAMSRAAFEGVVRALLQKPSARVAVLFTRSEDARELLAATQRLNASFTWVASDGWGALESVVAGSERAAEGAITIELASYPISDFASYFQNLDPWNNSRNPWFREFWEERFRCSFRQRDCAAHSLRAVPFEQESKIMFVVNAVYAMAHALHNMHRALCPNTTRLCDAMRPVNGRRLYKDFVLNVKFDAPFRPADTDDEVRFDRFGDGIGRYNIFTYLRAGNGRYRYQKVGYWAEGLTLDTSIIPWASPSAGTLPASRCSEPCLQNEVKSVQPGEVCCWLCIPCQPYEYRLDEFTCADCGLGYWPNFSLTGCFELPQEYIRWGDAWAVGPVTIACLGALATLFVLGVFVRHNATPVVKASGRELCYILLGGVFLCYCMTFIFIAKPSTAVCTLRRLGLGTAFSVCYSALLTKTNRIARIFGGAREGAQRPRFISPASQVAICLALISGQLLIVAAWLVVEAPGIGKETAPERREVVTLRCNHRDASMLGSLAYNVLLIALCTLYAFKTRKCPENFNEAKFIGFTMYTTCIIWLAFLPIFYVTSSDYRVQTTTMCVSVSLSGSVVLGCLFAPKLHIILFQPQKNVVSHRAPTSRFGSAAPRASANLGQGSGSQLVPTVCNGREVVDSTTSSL
# mGluR2 [3] = molecular target: T1, mGluR2 (Mus musculus, UniProt Q14BI2); assay: Functional calcium imaging, SNAP-mGluR2 (no FLAG-tag) with chimeric G protein Gqo5 in HEK293T cells; assay type: cell-based; parameters: Full length mGluR2 construct with an amber codon (TAG) mutation of amino acid A548 (azi-CRD) or N-terminal SNAP-tag (SNAP-mGluR2); host or cells: HEK293T; details: modulator alone; precluded analysis of glutamate potency and efficacy
# T1 sequence (Q14BI2 19-872): as the sequence (Q14BI2 19-872 A548F) above, with F530A counted along it
# mGluR2 [4] = molecular target: T1, mGluR2; assay: Live-cell FRET, SNAP-m2 (VFT domain) inter-subunit sensor in HEK293T cells; details: for SNAP-m2 FRET response (PAM DRC) / SNAP-m2 FRET response (PAM DRC), Mean: Glutamate + 5μM LY487379; for SNAP-m2 FRET response (PAM DRC): individual cells, normalized to 1mM glutamate;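 for all read-outs here: apparent FRET efficiency from whole-membrane ROIs of single cells, corrected for donor bleed-through and background, ΔFRET as treatment minus pretreatment signal, recorded at room temperature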
# [5] = 5μM LY487379, ([1 mM glutamate + modulator] - [1 mM glutamate]) × 100
structure (smiles),measurement,setting,value
"COc1ccccc1Oc1ccc(N(Cc2cccnc2)S(=O)(=O)CC(F)(F)F)cc1 [LY487379, N -(4-(2-Methoxyphenoxy)phenyl)-N -(2,2,2− trifluoroethylsulfonyl)pyrid-3-ylmethylamine]","azi-ECL2 - ΔEfficacy, Mean ΔEfficacy",mGluR2 [1]; [5],24.615
same,Mean ΔPotency,"mGluR2 [1]; 5μM modulator, (([modulator + glutamate]EC50 – [glutamate] EC50)/[glutamate] EC50) × 100",-30.8994
same,"ΔPotency, individual cell responses","mGluR2 [1]; 5μM modulator, single cells, (([modulator + glutamate]EC50 – [glutamate] EC50)/[glutamate] EC50) × 100",-50.558 and -25.4476 and -23.8904 and -47.6382 and -34.9857 and -54.4511 and -26.0316 and -30.3706 and -10.8251 and 8.313 and -4.368 and -31.1486 and -23.7197 and -38.0027 and -24.5685 and -37.4665 and -50.1273 and -31.7846 and -24.8874 and -46.4706
same,"ΔEfficacy, individual cell responses","mGluR2 [1]; 5μM modulator, single cells, ([1 mM glutamate + modulator] - [1 mM glutamate]) × 100",52.1008 and 4.706 and 3.279 and -3.644 and 40.8403 and 19.2658 and 55.7571
same,Mean max response (normalized max ΔFRET),"mGluR2 [1]; azi-ECL2, 1 mM glutamate + 5 μM modulator, normalized to 1 mM glutamate",1.25
same,Hill slope of glutamate titration,"mGluR2 [1]; azi-ECL2 sensor, + 5 μM modulator",0.98
same,Live-cell FRET max response normalized to 1mM glutamate,"mGluR2 [1]; azi-ECL2 sensor, Glutamate + 5μM LY487379, individual values (N=7)",1.4084 and 1.193 and 1.558 and 1.521 and 1.047 and 1.033 and 0.9636
same,Mean normalized azi-ECL2 FRET response,mGluR2 [1]; log[Glutamate] (M) -3,1.246
same,Mean normalized azi-ECL2 FRET response,mGluR2 [1]; log[Glutamate] (M) -4.1549,1.162
same,Mean normalized azi-ECL2 FRET response,mGluR2 [1]; log[Glutamate] (M) -4.52288,1.05
same,Mean normalized azi-ECL2 FRET response,mGluR2 [1]; log[Glutamate] (M) -5,0.9021
same,Mean normalized azi-ECL2 FRET response,mGluR2 [1]; log[Glutamate] (M) -5.39794,0.6628
same,Mean normalized azi-ECL2 FRET response,mGluR2 [1]; log[Glutamate] (M) -5.82391,0.3586
same,Mean normalized azi-ECL2 FRET response,mGluR2 [1]; log[Glutamate] (M) -6.52288,0.0516
same,Mean normalized azi-ECL2 FRET response,mGluR2 [1]; log[Glutamate] (M) -7,0.00565
same,Mean normalized azi-ECL2 FRET response,mGluR2 [1]; log[Glutamate] (M) -7.30103,0
same,Mean normalized azi-ECL2 FRET response,mGluR2 [1]; log[Glutamate] (M) -7.69897,0
same,"azi-CRD - ΔEfficacy, Mean ΔEfficacy",mGluR2 [2]; [5],56.4462
same,"azi-CRD - ΔEfficacy, individual cell responses","mGluR2 [2]; 5μM LY487379, single cells",81.7927 and 91.1647 and 102.83 and 105.34 and 78.0041 and 66.6667 and 72.6804 and 69.5464 and 76.2911 and 41.9214 and 42.0188 and 53.8462 and 0 and 21.4575 and 34.4595 and 42.2449 and 30.2041 and 33.2258 and 28.7834
same,Hill slope of glutamate titration,"mGluR2 [2]; azi-CRD sensor, + 5 μM modulator",0.91
same,Mean max response (normalized max ΔFRET),"mGluR2 [2]; azi-CRD, 1 mM glutamate + 5 μM modulator, normalized to 1 mM glutamate",1.56
same,Mean ΔPotency,"mGluR2 [2]; azi-CRD, 5μM modulator, (([modulator + glutamate]EC50 – [glutamate] EC50)/[glutamate] EC50) × 100",-61.3748
same,"ΔPotency, individual cell","mGluR2 [2]; azi-CRD, 5μM modulator, calculated from individual cell responses",-86.3622 and -82.4274 and -82.7128 and -78.2764 and -89.1123 and -88.282 and -87.867 and -88.628 and -87.1232 and -72.2401 and -70.8565 and -64.63 and -55.982 and -66.7055 and -27.5303 and -19.9202 and -46.4693 and -21.7362 and -27.2709 and -11.7911 and -36.6107 and -57.7116
same,"Mean normalized FRET response, azi-CRD PAM DRC",mGluR2 [2]; log[Glutamate] (M) -3,1.564
same,"Mean normalized FRET response, azi-CRD PAM DRC",mGluR2 [2]; log[Glutamate] (M) -4.1549,1.506
same,"Mean normalized FRET response, azi-CRD PAM DRC",mGluR2 [2]; log[Glutamate] (M) -4.52288,1.431
same,"Mean normalized FRET response, azi-CRD PAM DRC",mGluR2 [2]; log[Glutamate] (M) -5,1.21
same,"Mean normalized FRET response, azi-CRD PAM DRC",mGluR2 [2]; log[Glutamate] (M) -5.39794,0.9243
same,"Mean normalized FRET response, azi-CRD PAM DRC",mGluR2 [2]; log[Glutamate] (M) -5.82391,0.548
same,"Mean normalized FRET response, azi-CRD PAM DRC",mGluR2 [2]; log[Glutamate] (M) -6.52288,0.2035
same,"Mean normalized FRET response, azi-CRD PAM DRC",mGluR2 [2]; log[Glutamate] (M) -7,0.1104
same,"Mean normalized FRET response, azi-CRD PAM DRC",mGluR2 [2]; log[Glutamate] (M) -7.30103,0.08348
same,"Mean normalized FRET response, azi-CRD PAM DRC",mGluR2 [2]; log[Glutamate] (M) -7.69897,0
same,Effect of modulator itself on intracellular calcium flux,mGluR2 [3],Direct activation of mGluR2
same,"SNAP-m2 - ΔEfficacy, Mean ΔEfficacy",mGluR2 [4]; [5],7.324
same,SNAP-m2 FRET response (PAM DRC),mGluR2 [4]; log[Glutamate] (M) -3,-1.073
same,"SNAP-m2 FRET response (PAM DRC), Mean",mGluR2 [4]; log[Glutamate] (M) -3,-1.073
same,SNAP-m2 FRET response (PAM DRC),mGluR2 [4]; log[Glutamate] (M) -4.1549,-1.073 and -1.043 and -1.045 and -1.173
same,"SNAP-m2 FRET response (PAM DRC), Mean",mGluR2 [4]; log[Glutamate] (M) -4.1549,-1.083
same,SNAP-m2 FRET response (PAM DRC),mGluR2 [4]; log[Glutamate] (M) -4.52288,-1.073 and -1.028 and -1.065 and -1.205
same,"SNAP-m2 FRET response (PAM DRC), Mean",mGluR2 [4]; log[Glutamate] (M) -4.52288,-1.093
same,SNAP-m2 FRET response (PAM DRC),mGluR2 [4]; log[Glutamate] (M) -5,-0.9102 and -0.7407 and -0.8397 and -1.14
same,"SNAP-m2 FRET response (PAM DRC), Mean",mGluR2 [4]; log[Glutamate] (M) -5,-0.9075
same,SNAP-m2 FRET response (PAM DRC),mGluR2 [4]; log[Glutamate] (M) -5.39794,-0.5434 and -0.4233 and -0.4506 and -0.9619
same,"SNAP-m2 FRET response (PAM DRC), Mean",mGluR2 [4]; log[Glutamate] (M) -5.39794,-0.5948
same,SNAP-m2 FRET response (PAM DRC),mGluR2 [4]; log[Glutamate] (M) -5.82391,-0.2581 and -0.136 and -0.1638 and -0.657
same,"SNAP-m2 FRET response (PAM DRC), Mean",mGluR2 [4]; log[Glutamate] (M) -5.82391,-0.3038
same,SNAP-m2 FRET response (PAM DRC),mGluR2 [4]; log[Glutamate] (M) -6.52288,-0.05434 and 0 and -0.02048 and -0.1132
same,"SNAP-m2 FRET response (PAM DRC), Mean",mGluR2 [4]; log[Glutamate] (M) -6.52288,-0.047
same,SNAP-m2 FRET response (PAM DRC),mGluR2 [4]; log[Glutamate] (M) -7,0
same,"SNAP-m2 FRET response (PAM DRC), Mean",mGluR2 [4]; log[Glutamate] (M) -7,0
same,SNAP-m2 FRET response (PAM DRC),mGluR2 [4]; log[Glutamate] (M) -7.30103,0
same,"SNAP-m2 FRET response (PAM DRC), Mean",mGluR2 [4]; log[Glutamate] (M) -7.30103,0
same,SNAP-m2 FRET response (PAM DRC),mGluR2 [4]; log[Glutamate] (M) -7.69897,0
same,"SNAP-m2 FRET response (PAM DRC), Mean",mGluR2 [4]; log[Glutamate] (M) -7.69897,0
same,Mean max response (normalized max ΔFRET),"mGluR2 [4]; SNAP-m2, 1 mM glutamate + 5 μM modulator, normalized to 1 mM glutamate",1.07
same,Mean ΔPotency,"mGluR2 [4]; SNAP-m2, 5μM modulator, (([modulator + glutamate]EC50 – [glutamate] EC50)/[glutamate] EC50) × 100",-67.8391
same,Mean ΔEfficacy,"mGluR2 [4]; SNAP-m2, 5μM modulator, ([1 mM glutamate + modulator] - [1 mM glutamate]) × 100",7.324
same,Hill slope of glutamate titration,"mGluR2 [4]; SNAP-m2 sensor, + 5 μM modulator",–1.43
